The results in this text go back to ChEMBL document CHEMBL1148853, “Studies on acyl pyrrolidine inhibitors of HCV RNA-dependent RNA polymerase to identify a molecule with replicon antiviral activity” (Bioorg Med Chem Lett, 2007).

One data set has as its system Hepacivirus hominis. In words: Inhibition of HCV NS5B J4 delta 21 polymerase at 10 uM.
Data set [1] is described as follows: Inhibition of HCV NS5B J4 delta 21 polymerase. Details: species or system Hepacivirus hominis.
A short description of data set [2]: Inhibition of HCV NS5B RB01 polymerase. Details: species or system Hepacivirus hominis.
In another data set the test system is Hepatitis C virus. In words: Inhibition of HCV replicon by cell based assay. Type of data set: functional, organism-based, Hepacivirus hominis. (In general: In antiviral work, replicon cells carry a viral genome segment that copies itself.)
Data set [3] is described as follows: Permeability across artificial membrane by PAMPA assay. The following applies: read-out: permeability. It counts as ADME. Background: PAMPA measures passive passage across an artificial lipid membrane.

Where only a bound is given, the exact number is not on record here.

In general, inhibition refers to how much of the control response was suppressed. A low value points to a response near the control. For the molecule `CC(C)C[C@@]1(C(=O)O)C[C@H](CO)[C@H](c2cccs2)N1C(=O)c1ccc(C(F)(F)F)cc1`, the inhibition in the data set on Hepacivirus hominis was 51%.

One may read the IC50 as the concentration at which inhibition is half-maximal. High values mean weaker potency in that assay, low ones greater potency in that assay. With `CC(C)C[C@@]1(C(=O)O)C[C@H](C(=O)NS(=O)(=O)Cc2ccccc2)[C@H](c2nccs2)N1C(=O)c1ccc(C(C)(C)C)cc1`, the values for the IC50 in data set [1] and in data set [2] were 0.55 µM and 4.23 µM, respectively.

As to `CC(C)C[C@@]1(C(=O)O)C[C@H](C(=O)O)[C@H](c2nccs2)N1C(=O)c1ccc(C(C)(C)C)cc1` (stereo in doubt; (-)28), the IC50 in data set [1] is 2.36 µM.

The molecule `CC(C)C[C@@]1(C(N)=O)C[C@H](C(=O)O)[C@H](c2cccs2)N1C(=O)c1ccc(C(F)(F)F)cc1` registered a half-inhibitory concentration (IC50) in data set [1] of 8.1 µM.

In data set [1], `CC(C)C[C@@]1(C(=O)O)C[C@H](C(=O)NS(=O)(=O)C(F)(F)F)[C@H](c2cccs2)N1C(=O)c1ccc(C(F)(F)F)cc1` displayed an IC50 of 0.2 µM.

On to `CC(C)C[C@@]1(C(=O)O)C[C@H](C(N)=O)[C@H](c2cccs2)N1C(=O)c1ccc(C(C)(C)C)cc1`, for which the IC50 in data set [1] was 0.33 µM.

`CC(C)C[C@@]1(C(=O)O)C[C@H](C(N)=O)[C@H](c2cccs2)N1C(=O)c1ccc(C(F)(F)F)cc1` (stereo in doubt; (-)29): the IC50 in data set [1] was above 30 µM.

Regarding `CC(C)C[C@@]1(C(=O)O)C[C@H](C(=O)NS(C)(=O)=O)[C@H](c2nccs2)N1C(=O)c1ccc(C(F)(F)F)cc1`, the IC50 in data set [1] was determined as 0.41 µM.

In turn, `CC(C)C[C@@]1(C(=O)NC(C)C)C[C@H](C(=O)O)[C@H](c2cccs2)N1C(=O)c1ccc(C(F)(F)F)cc1` returned an IC50 in data set [1] above 20 µM.

Turning to `CC(C)C[C@@]1(C(=O)O)C[C@H](C(=O)NS(C)(=O)=O)[C@H](c2cccs2)N1C(=O)c1ccc(C(F)(F)F)cc1`, the half-maximal inhibitory concentration (IC50) in data set [1] was determined as 0.23 µM. That is a sub-micromolar value.

For the molecule `CC(C)C[C@@]1(C(=O)OCc2ccccc2)C[C@H](C(=O)O)[C@H](c2cccs2)N1C(=O)c1ccc(C(F)(F)F)cc1`, the IC50 in data set [1] was above 20 µM.

As to `CC(C)C[C@@]1(C(=O)O)C[C@H](C(=O)O)[C@H](c2nccs2)N1C(=O)c1ccc(C(C)(C)C)cc1` (stereo in doubt; (+)28), the IC50 in data set [1] came out at 0.03 µM; in data set [2] it was 2.1 µM.

The molecule `CC(C)C[C@@]1(C(=O)Nc2ccccc2)C[C@H](C(=O)O)[C@H](c2cccs2)N1C(=O)c1ccc(C(F)(F)F)cc1` yielded a concentration for half-maximal inhibition (IC50) in data set [1] above 20 µM.

For `CC(C)C[C@@]1(C(=O)O)C[C@H](C(N)=O)[C@H](c2nccs2)N1C(=O)c1ccc(C(C)(C)C)cc1` (stereo in doubt; 32), the IC50 is 0.08 µM in data set [1] and 4.4 µM in data set [2].

What is called CC50 is the concentration that lowers cell viability or growth by half. In data set [2], `CC(C)C[C@@]1(C(=O)O)C[C@H](C(=O)Nc2ccccc2)[C@H](c2nccs2)N1C(=O)c1ccc(C(C)(C)C)cc1` (stereo in doubt; (-)41) registered an IC50 above 100 µM. The 50% cytotoxic concentration (CC50) in the data set with Hepatitis C virus (Hepatitis C virus) was above 200 µM.

Molecule `CC(C)C[C@@]1(C(=O)O)C[C@H](C(N)=O)[C@H](c2cccs2)N1C(=O)c1ccc(C(F)(F)F)cc1` (stereo in doubt; (+)29) had a half-inhibitory concentration (IC50) in data set [1] of 2.23 µM.

In the case of `CC(C)C[C@@]1(C(=O)O)C[C@H](C(=O)Nc2ccccc2)[C@H](c2nccs2)N1C(=O)c1ccc(C(C)(C)C)cc1` (stereo in doubt; (+)41), the values for the 50% inhibitory concentration (IC50) (in data set [2]; with Hepatitis C virus) were 0.5 µM and 30 µM, respectively.

With `COC(=O)[C@H]1C[C@@](CC(C)C)(C(=O)OC)N(C(=O)c2ccc(C(F)(F)F)cc2)[C@H]1c1cccs1`, the IC50 in data set [1] was above 20 µM.

As to `CC(C)C[C@@]1(C(=O)O)C[C@H](C(N)=O)[C@H](c2nccs2)N1C(=O)c1ccc(C(C)(C)C)cc1` (stereo in doubt; (+)32), the 50% inhibitory concentration (IC50) in data set [1] was determined as 0.07 µM; in data set [2] it was 3.8 µM.

For the molecule `CC(C)C[C@@]1(C(=O)NCc2ccccc2)C[C@H](C(=O)O)[C@H](c2cccs2)N1C(=O)c1ccc(C(F)(F)F)cc1`, the IC50 in data set [1] is above 20 µM.

Turning to `CC(C)C[C@@]1(CO)C[C@H](C(=O)O)[C@H](c2cccs2)N1C(=O)c1ccc(C(F)(F)F)cc1`, the inhibition with Hepacivirus hominis was determined as 0%.

For the molecule `CC(C)C[C@@]1(C(=O)O)C[C@H](C(=O)O)[C@H](c2cccs2)N1C(=O)c1ccc(C(F)(F)F)cc1` (stereo in doubt; (+)-1), the concentration for half-maximal inhibition (IC50) turned out to be 0.3 µM in data set [1] and 11.9 µM in data set [2].

For the molecule `CC(C)C[C@@]1(C(=O)O)C[C@H](C(=O)NS(=O)(=O)c2ccccc2)[C@H](c2nccs2)N1C(=O)c1ccc(C(C)(C)C)cc1`, the figures for the 50% inhibitory concentration (IC50) in data set [1] and in data set [2] were 0.5 µM and 3.15 µM, respectively.

For `CNC(=O)[C@H]1C[C@@](CC(C)C)(C(=O)O)N(C(=O)c2ccc(C(C)(C)C)cc2)[C@H]1c1nccs1`, in data set [2], the half-inhibitory concentration (IC50) was 22 µM.

As to `CC(C)C[C@@]1(C(=O)O)C[C@H](C(N)=O)[C@H](c2cccs2)N1C(=O)c1ccc(C(F)(F)F)cc1` (stereo in doubt; 19), the half-inhibitory concentration (IC50) in data set [1] worked out at 4.4 µM. In other words, the single-digit micromolar range.

Turning to `CC(C)C[C@@]1(C(=O)O)C[C@H](C(N)=O)[C@H](c2nccs2)N1C(=O)c1ccc(C(C)(C)C)cc1` (stereo in doubt; (-)32), the IC50 in data set [1] worked out at 2.5 µM.

On to `CC(C)C[C@@]1(C(=O)O)C[C@H](C(N)=O)[C@H](c2nccs2)N1C(=O)c1ccc(C(F)(F)F)cc1`, for which, in data set [1], the IC50 was determined as 2.05 µM. The IC50 values of the last two molecules are within 1.5-fold of each other.

Consider `COC(=O)[C@H]1C[C@@](CC(C)C)(C(=O)O)N(C(=O)c2ccc(C(F)(F)F)cc2)[C@H]1c1cccs1`, for which the concentration for half-maximal inhibition (IC50) in data set [1] was above 20 µM.

The molecule `CCNC(=O)[C@]1(CC(C)C)C[C@H](C(=O)O)[C@H](c2cccs2)N1C(=O)c1ccc(C(F)(F)F)cc1` registered an IC50 in data set [1] above 20 µM.

For the molecule `CC(C)C[C@@]1(C(=O)O)C[C@H](C(=O)O)[C@H](c2nccs2)N1C(=O)c1ccc(C(C)(C)C)cc1` (stereo in doubt; 28), the IC50 in data set [1] came out at 0.07 µM; in data set [2], 3.8 µM.

The molecule `CC(C)C[C@@]1(C(=O)O)C[C@H](C(=O)O)[C@H](c2cccs2)N1C(=O)c1ccc(C(C)(C)C)cc1` registered a 50% inhibitory concentration (IC50) in data set [1] of 0.75 µM.

As for `CC(C)C[C@@]1(C(=O)O)C[C@H](C(=O)O)[C@H](c2nccs2)N1C(=O)c1ccc(C(F)(F)F)cc1`, the IC50 in data set [1] was 0.45 µM.

As for `CNC(=O)[C@]1(CC(C)C)C[C@H](C(=O)O)[C@H](c2cccs2)N1C(=O)c1ccc(C(F)(F)F)cc1`, in data set [1], the IC50 was above 20 µM.

`CC(C)C[C@@]1(C(=O)O)C[C@H](C(=O)NS(C)(=O)=O)[C@H](c2nccs2)N1C(=O)c1ccc(C(C)(C)C)cc1`: half-maximal inhibition in data set [1] (IC50) required 0.04 µM. Besides, the Papp in data set [3] is below 0.03 ×10⁻⁶ cm/s.

In the case of `CC(C)C[C@@]1(C(=O)O)C[C@H](C(=O)O)[C@H](c2cccs2)N1C(=O)c1ccc(C(F)(F)F)cc1` (stereo in doubt; 1), inhibition in data set [2] was half-maximal at 20 µM (IC50).

As for `COC(=O)[C@]1(CC(C)C)C[C@H](C(=O)O)[C@H](c2cccs2)N1C(=O)c1ccc(C(F)(F)F)cc1`, the IC50 in data set [1] is above 20 µM.

In the case of `CC(C)C[C@@]1(C(=O)O)C[C@H](C(=O)O)[C@H](c2cccs2)N1C(=O)c1ccc(C(F)(F)F)cc1` (stereo in doubt; (-)1), the IC50 in data set [1] came out at 18 µM.

Regarding `CC(C)C[C@@]1(C(=O)O)C[C@H](C(=O)NCc2ccccc2)[C@H](c2nccs2)N1C(=O)c1ccc(C(C)(C)C)cc1`, the 50% inhibitory concentration (IC50) in data set [1] was found to be 8.29 µM; in data set [2] it was 68 µM.

On to `CC(C)C[C@@]1(C(=O)O)C[C@H](C(=O)Nc2ccccc2)[C@H](c2nccs2)N1C(=O)c1ccc(C(C)(C)C)cc1` (stereo in doubt; 41), for which the IC50 was determined as 0.16 µM in data set [1], 3.1 µM in data set [2] and 45 µM with Hepatitis C virus (Hepatitis C virus).
